Results reported in ChEMBL document CHEMBL1201862, “PubChem BioAssay data set” (2004).
Where a name gives a salt, the structure may show the parent alone.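 Where inhibition never reached the appropriate level, the endpoint shown equals the highest concentration tested. Otherwise, values were interpolated linearly from a five-concentration, 48-hour dose response in 96-well plates. The concentration for 50% growth inhibition is given as GI50.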 Active and inactive are the calls of the source. No stated cut-off is given here; in the data, active = GI50 up to about 1.1 µM and inactive = higher.

Legend:
Assay in all cases: NCI anticancer screen, dose series, 48 h
SK-MEL-2 = test system: SK-MEL-2
T47D = test system: T47D
LOX IMVI = test system: LOX IMVI
IGROV-1 = test system: IGROV-1
HCC 2998 = test system: HCC 2998
HOP-62 = test system: HOP-62
CCRF-CEM = test system: CCRF-CEM
NCI-H23 = test system: NCI-H23
SF-268 = test system: SF-268
DU-145 = test system: DU-145
HL-60 = test system: HL-60
BT-549 = test system: BT-549
SR = test system: SR
HOP-92 = test system: HOP-92
OVCAR-4 = test system: OVCAR-4
CAKI-1 = test system: CAKI-1
SK-MEL-5 = test system: SK-MEL-5
MCF7 = test system: MCF7
MDA-MB-435 = test system: MDA-MB-435
RXF 393 = test system: RXF 393

Measured: GI50

C=C1CC(C)(COc2cc(=O)oc3ccccc23)OC1=O (stereo unspecified)
inactive: SK-MEL-2 2.51 µM | T47D 2.48 µM | LOX IMVI 2.56 µM | IGROV-1 3.03 µM | HCC 2998 25.2 µM | HOP-62 20.2 µM | CCRF-CEM 1.86 µM | NCI-H23 3.87 µM | SF-268 14.9 µM | DU-145 6.97 µM | HL-60 1.17 µM | BT-549 1.73 µM | SR 2.88 µM | HOP-92 1.2 µM | OVCAR-4 3.87 µM | CAKI-1 2.22 µM | SK-MEL-5 5.33 µM | MCF7 1.74 µM | MDA-MB-435 5.53 µM

O=C(/C=C/c1cc(O)c(O)cc1O)OCCc1ccccc1
inactive: SK-MEL-2 20.8 µM | T47D 4.4 µM | LOX IMVI 12.9 µM | IGROV-1 23.1 µM | HCC 2998 > 72.1 µM | HOP-62 31.1 µM | CCRF-CEM 2.07 µM | NCI-H23 24.2 µM | SF-268 19 µM | DU-145 > 52.6 µM | HL-60 1.3 µM | BT-549 25.7 µM | SR 5.53 µM | HOP-92 7.6 µM | OVCAR-4 17.7 µM | CAKI-1 24.5 µM | SK-MEL-5 18.7 µM | MCF7 15 µM | MDA-MB-435 20.2 µM

CC(=O)OCC1OC(OC(C)=O)C(Nc2ncc(-c3ccc(C)cc3)s2)C(OC(C)=O)C1OC(C)=O (stereo unspecified)
inactive: SK-MEL-2 22.6 µM | T47D 15.2 µM | LOX IMVI 13.2 µM | IGROV-1 17.3 µM | HCC 2998 29.7 µM | HOP-62 20.4 µM | CCRF-CEM 4.4 µM | NCI-H23 12 µM | SF-268 16.5 µM | DU-145 31.3 µM | HL-60 > 10 µM | BT-549 18.6 µM | RXF 393 16.1 µM | SR 26.4 µM | OVCAR-4 16.9 µM | CAKI-1 16.9 µM | SK-MEL-5 15.8 µM | MCF7 20.3 µM | MDA-MB-435 15.8 µM

CN(C)CCC=C1c2ccccc2C=Cc2ccccc21 [CYCLOBENZAPRINE HYDROCHLORIDE]
inactive: SK-MEL-2 16.3 µM | T47D 19.5 µM | LOX IMVI 16.7 µM | IGROV-1 16.7 µM | HCC 2998 5.4 µM | HOP-62 16.5 µM | NCI-H23 18.7 µM | SF-268 15.8 µM | DU-145 18 µM | BT-549 17.4 µM | RXF 393 14.5 µM | SR 17.9 µM | HOP-92 15.6 µM | OVCAR-4 23.1 µM | CAKI-1 17 µM | SK-MEL-5 14 µM | MCF7 16.3 µM | MDA-MB-435 16.7 µM

C(=N\Nc1nnc(-c2nnc(N/N=C/c3ccccc3)o2)o1)/c1ccccc1
inactive: T47D > 10 µM | IGROV-1 > 10 µM | HCC 2998 > 10 µM | HOP-62 > 10 µM | CCRF-CEM > 10 µM | NCI-H23 > 10 µM | SF-268 > 10 µM | DU-145 > 10 µM | HL-60 > 10 µM | BT-549 > 10 µM | RXF 393 > 10 µM | SR > 10 µM | HOP-92 > 10 µM | OVCAR-4 > 10 µM | CAKI-1 > 10 µM | SK-MEL-5 > 10 µM | MCF7 > 10 µM | MDA-MB-435 > 10 µM

COc1ccc(OC)c(NC(=O)c2c(Cl)c(Cl)c(Cl)c(Cl)c2-c2nc3ccccc3[nH]2)c1
inactive: T47D > 100 µM | LOX IMVI > 100 µM | IGROV-1 89.1 µM | HCC 2998 > 100 µM | HOP-62 > 100 µM | CCRF-CEM 49.2 µM | NCI-H23 > 100 µM | SF-268 > 100 µM | DU-145 > 100 µM | HL-60 53.7 µM | BT-549 > 100 µM | RXF 393 > 100 µM | SR 52.6 µM | HOP-92 > 100 µM | OVCAR-4 > 100 µM | CAKI-1 > 100 µM | SK-MEL-5 > 100 µM | MCF7 76.7 µM | MDA-MB-435 > 100 µM

Cc1nnc2n1N=C(c1ccccc1)/C(=C/c1ccc(-c3ccc(Cl)cc3)o1)S2
inactive: SK-MEL-2 13.2 µM | T47D 5.22 µM | IGROV-1 18.9 µM | HCC 2998 7.19 µM | HOP-62 15.3 µM | CCRF-CEM 2.71 µM | NCI-H23 15.9 µM | SF-268 14.3 µM | DU-145 14.3 µM | HL-60 4.36 µM | BT-549 11.4 µM | RXF 393 10.8 µM | SR 5.77 µM | HOP-92 17.5 µM | OVCAR-4 15.7 µM | CAKI-1 15.1 µM | SK-MEL-5 13.6 µM | MCF7 2.11 µM | MDA-MB-435 4.61 µM

CCN(CC)CCN(/C(=N/c1ccccc1)N1CCCCC1)c1ccccc1
inactive: SK-MEL-2 14.5 µM | T47D 2.31 µM | LOX IMVI 3.14 µM | IGROV-1 2.75 µM | HCC 2998 6 µM | HOP-62 8.18 µM | CCRF-CEM 4.49 µM | NCI-H23 4.38 µM | SF-268 27.6 µM | DU-145 20.2 µM | HL-60 1.63 µM | BT-549 13.7 µM | RXF 393 17.7 µM | SR 3.4 µM | OVCAR-4 3.87 µM | CAKI-1 27.8 µM | SK-MEL-5 5.08 µM | MCF7 5.53 µM | MDA-MB-435 3.91 µM

O=c1cc(CSc2c(-c3ccccc3)c(=O)n(-c3ccccc3)c(=S)n2-c2ccccc2)[nH]c(=O)[nH]1
inactive: SK-MEL-2 > 100 µM | T47D > 100 µM | IGROV-1 > 100 µM | HCC 2998 > 100 µM | HOP-62 > 100 µM | CCRF-CEM > 100 µM | SF-268 > 100 µM | DU-145 > 100 µM | HL-60 > 100 µM | BT-549 > 100 µM | RXF 393 > 100 µM | SR > 100 µM | CAKI-1 > 100 µM | SK-MEL-5 > 100 µM | MCF7 > 100 µM | MDA-MB-435 > 100 µM

O=C1Nc2ccccc2/C1=C1\C(=O)Nc2ccccc21 [ISOINDIGO]
inactive: SK-MEL-2 18.5 µM | T47D 1.35 µM | LOX IMVI 18.6 µM | IGROV-1 10.3 µM | HCC 2998 23.2 µM | HOP-62 25 µM | CCRF-CEM 2.9 µM | NCI-H23 20.9 µM | SF-268 31.2 µM | DU-145 12.9 µM | BT-549 25.6 µM | RXF 393 3.56 µM | SR 2.82 µM | HOP-92 20.6 µM | OVCAR-4 10 µM | CAKI-1 19.7 µM | SK-MEL-5 59.7 µM | MCF7 4.52 µM | MDA-MB-435 11.9 µM

COc1cc(COC(=O)N[C@H](C(=O)O)C(C)(C)C)c([N+](=O)[O-])cc1OC
inactive: T47D > 100 µM | IGROV-1 > 100 µM | HCC 2998 > 100 µM | HOP-62 > 100 µM | CCRF-CEM > 100 µM | NCI-H23 > 100 µM | SF-268 > 100 µM | DU-145 > 100 µM | HL-60 > 10 µM | BT-549 > 100 µM | RXF 393 > 100 µM | SR > 100 µM | HOP-92 > 100 µM | SK-MEL-5 > 100 µM | MCF7 > 100 µM | MDA-MB-435 > 100 µM
